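In this assay, cells in 96-well plates receive the compound at five concentrations for 48 hours. Endpoints are linearly interpolated between the surrounding concentrations. TGI denotes the concentration required for complete inhibition of growth.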
Key:
Test in all cases: inhibition of tumour cell growth, NCI panel, 48 h
OVCAR-3 ovarian = test system: OVCAR-3 ovarian
K-562 leukemia = test system: K-562 leukemia
OVCAR-4 ovarian = test system: OVCAR-4 ovarian
MDA-N = test system: MDA-N
HCT-15 colon = test system: HCT-15 colon
NCI-H522 lung = test system: NCI-H522 lung
SK-OV-3 ovarian = test system: SK-OV-3 ovarian
LOX IMVI melanoma = test system: LOX IMVI melanoma
A549 NSCLC = test system: A549 NSCLC
MOLT-4 leukemia = test system: MOLT-4 leukemia
HT29 colon = test system: HT29 colon
COLO 205 colon = test system: COLO 205 colon
BT-549 breast = test system: BT-549 breast
SNB-19 CNS = test system: SNB-19 CNS
DU-145 prostate = test system: DU-145 prostate
NCI-H226 lung = test system: NCI-H226 lung
U251 CNS = test system: U251 CNS
SNB-75 CNS = test system: SNB-75 CNS
M14 melanoma = test system: M14 melanoma
OVCAR-8 ovarian = test system: OVCAR-8 ovarian
HCT-116 colon = test system: HCT-116 colon
NCI-H460 lung = test system: NCI-H460 lung
A498 renal = test system: A498 renal
MALME-3M melanoma = test system: MALME-3M melanoma
UO-31 renal = test system: UO-31 renal
RXF 393 renal = test system: RXF 393 renal
HL-60(TB) leukemia = test system: HL-60(TB) leukemia
RPMI-8226 leukemia = test system: RPMI-8226 leukemia
NCI/ADR-RES ovarian = test system: NCI/ADR-RES ovarian
MDA-MB-435 = test system: MDA-MB-435
MCF7 breast = test system: MCF7 breast
OVCAR-5 ovarian = test system: OVCAR-5 ovarian
UACC-257 melanoma = test system: UACC-257 melanoma
TK-10 renal = test system: TK-10 renal
SW-620 colon = test system: SW-620 colon
NCI-H23 lung = test system: NCI-H23 lung
HS 578T breast = test system: HS 578T breast
MDA-MB-231 breast = test system: MDA-MB-231 breast
SF-539 CNS = test system: SF-539 CNS
EKVX NSCLC = test system: EKVX NSCLC
SK-MEL-28 melanoma = test system: SK-MEL-28 melanoma
HOP-92 NSCLC = test system: HOP-92 NSCLC
CAKI-1 renal = test system: CAKI-1 renal
CCRF-CEM leukemia = test system: CCRF-CEM leukemia
HOP-62 NSCLC = test system: HOP-62 NSCLC
SN12C renal = test system: SN12C renal
SF-295 CNS = test system: SF-295 CNS
HCC-2998 colon = test system: HCC-2998 colon
ACHN renal = test system: ACHN renal
SF-268 CNS = test system: SF-268 CNS
KM12 colon = test system: KM12 colon
SR leukemia = test system: SR leukemia
IGROV1 ovarian = test system: IGROV1 ovarian
786-0 renal = test system: 786-0 renal
SK-MEL-2 melanoma = test system: SK-MEL-2 melanoma
UACC-62 melanoma = test system: UACC-62 melanoma
SK-MEL-5 melanoma = test system: SK-MEL-5 melanoma
T-47D breast = test system: T-47D breast
PC-3 prostate = test system: PC-3 prostate
DLD-1 colon = test system: DLD-1 colon
M19-MEL melanoma = test system: M19-MEL melanoma
DMS 114 small cell lung = test system: DMS 114 small cell lung
XF 498 CNS = test system: XF 498 CNS
DMS 273 small cell lung = test system: DMS 273 small cell lung
SNB-78 CNS = test system: SNB-78 CNS
KM20L2 colon = test system: KM20L2 colon
HOP-18 NSCLC = test system: HOP-18 NSCLC

Structure (SMILES): O=S1(=O)c2cnccc2NC(=NCc2cccc3ccccc23)N1c1ccccc1
- TGI (OVCAR-3 ovarian): > 100 µM
- TGI (K-562 leukemia): > 100 µM
- TGI (OVCAR-4 ovarian): > 100 µM
- TGI (MDA-N): 26.9 µM
- TGI (HCT-15 colon): > 100 µM
- TGI (NCI-H522 lung): > 100 µM
- TGI (SK-OV-3 ovarian): > 100 µM
- TGI (LOX IMVI melanoma): > 100 µM
- TGI (A549 NSCLC): > 100 µM
- TGI (MOLT-4 leukemia): > 100 µM
- TGI (HT29 colon): > 100 µM
- TGI (COLO 205 colon): > 100 µM
- TGI (BT-549 breast): > 100 µM
- TGI (SNB-19 CNS): > 100 µM
- TGI (DU-145 prostate): > 100 µM
- TGI (NCI-H226 lung): > 100 µM
- TGI (U251 CNS): > 100 µM
- TGI (SNB-75 CNS): > 100 µM
- TGI (M14 melanoma): > 100 µM
- TGI (OVCAR-8 ovarian): > 100 µM
- TGI (HCT-116 colon): > 100 µM
- TGI (NCI-H460 lung): > 100 µM
- TGI (A498 renal): > 100 µM
- TGI (MALME-3M melanoma): > 100 µM
- TGI (UO-31 renal): > 100 µM
- TGI (RXF 393 renal): > 90.4 µM
- TGI (HL-60(TB) leukemia): > 53.7 µM
- TGI (RPMI-8226 leukemia): > 76.6 µM
- TGI (NCI/ADR-RES ovarian): > 100 µM
- TGI (MDA-MB-435): > 100 µM
- TGI (MCF7 breast): > 100 µM
- TGI (OVCAR-5 ovarian): > 100 µM
- TGI (UACC-257 melanoma): > 100 µM
- TGI (TK-10 renal): > 100 µM
- TGI (SW-620 colon): > 100 µM
- TGI (NCI-H23 lung): > 100 µM
- TGI (HS 578T breast): > 100 µM
- TGI (MDA-MB-231 breast): > 100 µM
- TGI (SF-539 CNS): > 100 µM
- TGI (EKVX NSCLC): > 100 µM
- TGI (SK-MEL-28 melanoma): > 100 µM
- TGI (HOP-92 NSCLC): > 100 µM
- TGI (CAKI-1 renal): > 100 µM
- TGI (CCRF-CEM leukemia): > 100 µM
- TGI (HOP-62 NSCLC): > 100 µM
- TGI (SN12C renal): > 100 µM
- TGI (SF-295 CNS): > 100 µM
- TGI (HCC-2998 colon): > 100 µM
- TGI (ACHN renal): > 100 µM
- TGI (SF-268 CNS): > 100 µM
- TGI (KM12 colon): > 100 µM
- TGI (SR leukemia): > 100 µM
- TGI (IGROV1 ovarian): > 100 µM
- TGI (786-0 renal): 74.7 µM
- TGI (SK-MEL-2 melanoma): > 30.5 µM
- TGI (UACC-62 melanoma): > 100 µM
- TGI (SK-MEL-5 melanoma): > 100 µM
- TGI (T-47D breast): > 100 µM
- TGI (PC-3 prostate): > 81.8 µM

Structure (SMILES): CC(=O)OCC(=O)[C@@]1(O)CC[C@H]2[C@@H]3CCC4=CC(=O)[C@H](C)C[C@]4(C)[C@H]3[C@@H](O)C[C@@]21C
- TGI (OVCAR-3 ovarian): > 100 µM
- TGI (K-562 leukemia): > 100 µM
- TGI (OVCAR-4 ovarian): > 100 µM
- TGI (HCT-15 colon): > 100 µM
- TGI (NCI-H522 lung): > 100 µM
- TGI (SK-OV-3 ovarian): > 100 µM
- TGI (LOX IMVI melanoma): > 100 µM
- TGI (A549 NSCLC): > 100 µM
- TGI (HT29 colon): > 100 µM
- TGI (COLO 205 colon): > 100 µM
- TGI (SNB-19 CNS): > 100 µM
- TGI (NCI-H226 lung): > 100 µM
- TGI (U251 CNS): > 100 µM
- TGI (SNB-75 CNS): > 100 µM
- TGI (M14 melanoma): > 100 µM
- TGI (OVCAR-8 ovarian): > 100 µM
- TGI (HCT-116 colon): > 100 µM
- TGI (DLD-1 colon): > 100 µM
- TGI (NCI-H460 lung): > 100 µM
- TGI (M19-MEL melanoma): > 100 µM
- TGI (A498 renal): > 100 µM
- TGI (DMS 114 small cell lung): > 100 µM
- TGI (MALME-3M melanoma): > 100 µM
- TGI (HL-60(TB) leukemia): > 100 µM
- TGI (RPMI-8226 leukemia): > 100 µM
- TGI (XF 498 CNS): > 100 µM
- TGI (OVCAR-5 ovarian): > 100 µM
- TGI (UACC-257 melanoma): > 100 µM
- TGI (TK-10 renal): > 100 µM
- TGI (SW-620 colon): > 100 µM
- TGI (NCI-H23 lung): > 100 µM
- TGI (DMS 273 small cell lung): > 100 µM
- TGI (SNB-78 CNS): > 100 µM
- TGI (SF-539 CNS): > 100 µM
- TGI (EKVX NSCLC): > 100 µM
- TGI (SK-MEL-28 melanoma): > 100 µM
- TGI (HOP-92 NSCLC): > 100 µM
- TGI (CAKI-1 renal): > 100 µM
- TGI (CCRF-CEM leukemia): > 100 µM
- TGI (HOP-62 NSCLC): > 100 µM
- TGI (SN12C renal): > 100 µM
- TGI (SF-295 CNS): > 100 µM
- TGI (HCC-2998 colon): > 100 µM
- TGI (ACHN renal): > 100 µM
- TGI (SF-268 CNS): > 100 µM
- TGI (KM12 colon): > 100 µM
- TGI (SR leukemia): > 100 µM
- TGI (KM20L2 colon): > 100 µM
- TGI (IGROV1 ovarian): > 100 µM
- TGI (786-0 renal): > 100 µM
- TGI (HOP-18 NSCLC): > 100 µM
- TGI (SK-MEL-2 melanoma): > 100 µM
- TGI (UACC-62 melanoma): > 100 µM
- TGI (SK-MEL-5 melanoma): > 100 µM

Structure (SMILES): NS(=O)(=O)c1cc2c(cc1Cl)NC(C(=O)c1cc(=O)c3ccc(O)cc3o1)=NS2(=O)=O
- TGI (OVCAR-3 ovarian): > 100 µM
- TGI (K-562 leukemia): > 100 µM
- TGI (OVCAR-4 ovarian): > 100 µM
- TGI (HCT-15 colon): > 100 µM
- TGI (NCI-H522 lung): > 100 µM
- TGI (SK-OV-3 ovarian): > 100 µM
- TGI (LOX IMVI melanoma): > 100 µM
- TGI (A549 NSCLC): > 100 µM
- TGI (MOLT-4 leukemia): > 100 µM
- TGI (HT29 colon): > 100 µM
- TGI (COLO 205 colon): > 100 µM
- TGI (SNB-19 CNS): > 100 µM
- TGI (NCI-H226 lung): > 100 µM
- TGI (U251 CNS): > 100 µM
- TGI (SNB-75 CNS): > 100 µM
- TGI (M14 melanoma): > 100 µM
- TGI (OVCAR-8 ovarian): > 100 µM
- TGI (HCT-116 colon): > 100 µM
- TGI (DLD-1 colon): > 100 µM
- TGI (NCI-H460 lung): > 100 µM
- TGI (M19-MEL melanoma): > 100 µM
- TGI (A498 renal): > 100 µM
- TGI (DMS 114 small cell lung): > 100 µM
- TGI (MALME-3M melanoma): > 100 µM
- TGI (UO-31 renal): > 100 µM
- TGI (RXF 393 renal): > 100 µM
- TGI (HL-60(TB) leukemia): > 100 µM
- TGI (RPMI-8226 leukemia): > 100 µM
- TGI (XF 498 CNS): > 100 µM
- TGI (OVCAR-5 ovarian): > 100 µM
- TGI (UACC-257 melanoma): > 100 µM
- TGI (TK-10 renal): > 100 µM
- TGI (SW-620 colon): > 100 µM
- TGI (NCI-H23 lung): > 100 µM
- TGI (DMS 273 small cell lung): > 100 µM
- TGI (SNB-78 CNS): > 100 µM
- TGI (SF-539 CNS): > 100 µM
- TGI (EKVX NSCLC): > 100 µM
- TGI (SK-MEL-28 melanoma): > 100 µM
- TGI (HOP-92 NSCLC): > 100 µM
- TGI (CAKI-1 renal): > 100 µM
- TGI (CCRF-CEM leukemia): > 100 µM
- TGI (HOP-62 NSCLC): > 100 µM
- TGI (SN12C renal): > 100 µM
- TGI (SF-295 CNS): > 100 µM
- TGI (HCC-2998 colon): > 100 µM
- TGI (ACHN renal): > 100 µM
- TGI (SF-268 CNS): > 100 µM
- TGI (KM12 colon): > 100 µM
- TGI (SR leukemia): > 100 µM
- TGI (KM20L2 colon): > 100 µM
- TGI (IGROV1 ovarian): > 100 µM
- TGI (786-0 renal): > 100 µM
- TGI (HOP-18 NSCLC): > 100 µM
- TGI (SK-MEL-2 melanoma): > 100 µM
- TGI (UACC-62 melanoma): > 100 µM
- TGI (SK-MEL-5 melanoma): > 100 µM

Source: PubChem BioAssay (NCI)
